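Five compound concentrations were applied to cells in 96-well plates for 48 hours; endpoints were derived by simple linear interpolation of the resulting dose-response curve. Here, GI50 denotes the concentration required for 50% inhibition of growth.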 Calls of active or inactive are those of the source. No stated cut-off is given here; in the data, active = GI50 up to about 1.1 µM and inactive = higher.
Columns and labels:
Assay in all cases: NCI tumour cell line growth inhibition, 48 h
A498 = system: A498
SF-539 = system: SF-539
CAKI-1 = system: CAKI-1
HOP-62 = system: HOP-62
SW-620 = system: SW-620
SNB-75 = system: SNB-75
NCI-H226 = system: NCI-H226
IGROV-1 = system: IGROV-1
OVCAR-3 = system: OVCAR-3
MOLT-4 = system: MOLT-4
NCI-H522 = system: NCI-H522
SK-OV-3 = system: SK-OV-3
Malme-3M = system: Malme-3M
RXF 393 = system: RXF 393
COLO 205 = system: COLO 205
SK-MEL-28 = system: SK-MEL-28
KM12 = system: KM12
HCC 2998 = system: HCC 2998
MCF7 = system: MCF7

CCOc1cccc2sc(N)nc12
GI50 (A498): > 100 µM (inactive)
GI50 (SF-539): > 100 µM (inactive)
GI50 (CAKI-1): > 100 µM (inactive)
GI50 (HOP-62): > 100 µM (inactive)
GI50 (SW-620): > 100 µM (inactive)
GI50 (SNB-75): > 100 µM (inactive)
GI50 (NCI-H226): > 100 µM (inactive)
GI50 (IGROV-1): > 100 µM (inactive)
GI50 (OVCAR-3): > 100 µM (inactive)
GI50 (MOLT-4): > 100 µM (inactive)
GI50 (NCI-H522): > 100 µM (inactive)
GI50 (SK-OV-3): > 100 µM (inactive)
GI50 (Malme-3M): > 100 µM (inactive)
GI50 (RXF 393): > 100 µM (inactive)
GI50 (COLO 205): > 100 µM (inactive)
GI50 (SK-MEL-28): > 100 µM (inactive)
GI50 (KM12): > 100 µM (inactive)
GI50 (HCC 2998): > 100 µM (inactive)

COc1cc(C(=O)C/C(CCC(=O)Nc2ccc(Cl)cc2Cl)=N/NC(=O)C(N)=O)ccc1O
GI50 (A498): > 100 µM (inactive)
GI50 (SF-539): > 100 µM (inactive)
GI50 (CAKI-1): > 100 µM (inactive)
GI50 (HOP-62): 79.6 µM (inactive)
GI50 (SW-620): > 100 µM (inactive)
GI50 (SNB-75): 7.91 µM (inactive)
GI50 (NCI-H226): > 100 µM (inactive)
GI50 (IGROV-1): > 100 µM (inactive)
GI50 (OVCAR-3): > 100 µM (inactive)
GI50 (MOLT-4): > 100 µM (inactive)
GI50 (NCI-H522): > 100 µM (inactive)
GI50 (SK-OV-3): > 100 µM (inactive)
GI50 (Malme-3M): > 100 µM (inactive)
GI50 (COLO 205): > 100 µM (inactive)
GI50 (SK-MEL-28): > 100 µM (inactive)
GI50 (KM12): 85.7 µM (inactive)
GI50 (HCC 2998): > 100 µM (inactive)

COc1cc(OC)c(C(=O)c2cccs2)cc1N
GI50 (A498): > 100 µM (inactive)
GI50 (SF-539): > 100 µM (inactive)
GI50 (CAKI-1): > 100 µM (inactive)
GI50 (HOP-62): > 100 µM (inactive)
GI50 (SW-620): > 100 µM (inactive)
GI50 (SNB-75): > 100 µM (inactive)
GI50 (IGROV-1): > 100 µM (inactive)
GI50 (OVCAR-3): > 100 µM (inactive)
GI50 (MOLT-4): > 100 µM (inactive)
GI50 (SK-OV-3): > 100 µM (inactive)
GI50 (Malme-3M): > 100 µM (inactive)
GI50 (RXF 393): > 100 µM (inactive)
GI50 (COLO 205): > 100 µM (inactive)
GI50 (SK-MEL-28): > 100 µM (inactive)
GI50 (KM12): > 100 µM (inactive)
GI50 (HCC 2998): > 100 µM (inactive)

CC1(C)C=[N+]([O-])C(C)(C)N1O
GI50 (MCF7): > 10 µM (inactive)
GI50 (CAKI-1): > 10 µM (inactive)
GI50 (HOP-62): > 10 µM (inactive)
GI50 (SW-620): > 10 µM (inactive)
GI50 (NCI-H226): > 10 µM (inactive)
GI50 (OVCAR-3): > 10 µM (inactive)
GI50 (MOLT-4): > 10 µM (inactive)
GI50 (NCI-H522): > 10 µM (inactive)
GI50 (Malme-3M): > 10 µM (inactive)
GI50 (RXF 393): > 10 µM (inactive)
GI50 (COLO 205): > 10 µM (inactive)
GI50 (KM12): > 10 µM (inactive)
GI50 (HCC 2998): > 10 µM (inactive)

COc1ccc(-c2cc(-c3ccc(Nc4ccnc5cc(Cl)ccc45)cc3)nc(N)c2C#N)cc1
GI50 (A498): > 100 µM (inactive)
GI50 (MCF7): > 100 µM (inactive)
GI50 (SF-539): > 100 µM (inactive)
GI50 (CAKI-1): > 100 µM (inactive)
GI50 (HOP-62): > 100 µM (inactive)
GI50 (SW-620): > 100 µM (inactive)
GI50 (SNB-75): > 100 µM (inactive)
GI50 (NCI-H226): > 100 µM (inactive)
GI50 (IGROV-1): > 100 µM (inactive)
GI50 (OVCAR-3): > 100 µM (inactive)
GI50 (MOLT-4): > 100 µM (inactive)
GI50 (NCI-H522): > 100 µM (inactive)
GI50 (SK-OV-3): > 100 µM (inactive)
GI50 (Malme-3M): > 100 µM (inactive)
GI50 (RXF 393): > 100 µM (inactive)
GI50 (COLO 205): > 100 µM (inactive)
GI50 (SK-MEL-28): > 100 µM (inactive)
GI50 (KM12): > 100 µM (inactive)
GI50 (HCC 2998): > 100 µM (inactive)

Cc1cc(NS(=O)(=O)c2ccc(NC(=O)COC(=O)c3cccc4c(=O)c5ccccc5[nH]c34)cc2)no1
GI50 (A498): > 100 µM (inactive)
GI50 (SF-539): > 100 µM (inactive)
GI50 (CAKI-1): > 100 µM (inactive)
GI50 (HOP-62): > 100 µM (inactive)
GI50 (SW-620): > 100 µM (inactive)
GI50 (SNB-75): > 100 µM (inactive)
GI50 (NCI-H226): > 100 µM (inactive)
GI50 (IGROV-1): > 100 µM (inactive)
GI50 (OVCAR-3): > 100 µM (inactive)
GI50 (MOLT-4): > 100 µM (inactive)
GI50 (NCI-H522): > 100 µM (inactive)
GI50 (SK-OV-3): > 100 µM (inactive)
GI50 (Malme-3M): > 100 µM (inactive)
GI50 (RXF 393): > 100 µM (inactive)
GI50 (COLO 205): > 100 µM (inactive)
GI50 (SK-MEL-28): > 100 µM (inactive)
GI50 (KM12): > 100 µM (inactive)
GI50 (HCC 2998): > 100 µM (inactive)

C/C(=C/C(=O)Nc1ccccc1)Nc1onc(C)c1C
GI50 (A498): > 100 µM (inactive)
GI50 (MCF7): > 100 µM (inactive)
GI50 (SF-539): > 100 µM (inactive)
GI50 (HOP-62): > 100 µM (inactive)
GI50 (SW-620): > 100 µM (inactive)
GI50 (SNB-75): 38.4 µM (inactive)
GI50 (NCI-H226): > 100 µM (inactive)
GI50 (IGROV-1): > 100 µM (inactive)
GI50 (OVCAR-3): > 100 µM (inactive)
GI50 (MOLT-4): > 100 µM (inactive)
GI50 (NCI-H522): > 100 µM (inactive)
GI50 (SK-OV-3): > 100 µM (inactive)
GI50 (Malme-3M): > 100 µM (inactive)
GI50 (RXF 393): > 100 µM (inactive)
GI50 (COLO 205): > 100 µM (inactive)
GI50 (SK-MEL-28): > 100 µM (inactive)
GI50 (KM12): > 100 µM (inactive)
GI50 (HCC 2998): > 100 µM (inactive)

CCOC(=O)CC1=CSC2=NCCN12
GI50 (A498): > 100 µM (inactive)
GI50 (SF-539): > 100 µM (inactive)
GI50 (CAKI-1): > 100 µM (inactive)
GI50 (HOP-62): > 100 µM (inactive)
GI50 (SW-620): > 100 µM (inactive)
GI50 (SNB-75): > 100 µM (inactive)
GI50 (NCI-H226): > 100 µM (inactive)
GI50 (IGROV-1): > 100 µM (inactive)
GI50 (OVCAR-3): > 100 µM (inactive)
GI50 (NCI-H522): > 100 µM (inactive)
GI50 (SK-OV-3): > 100 µM (inactive)
GI50 (Malme-3M): > 100 µM (inactive)
GI50 (RXF 393): > 100 µM (inactive)
GI50 (COLO 205): > 100 µM (inactive)
GI50 (SK-MEL-28): > 100 µM (inactive)
GI50 (KM12): > 100 µM (inactive)
GI50 (HCC 2998): > 100 µM (inactive)

COc1cc(NC(C)=O)c2[nH]c3c(C)cc(NC(C)=O)c(C)c3c2c1
GI50 (A498): > 100 µM (inactive)
GI50 (SF-539): > 100 µM (inactive)
GI50 (CAKI-1): > 100 µM (inactive)
GI50 (SW-620): > 100 µM (inactive)
GI50 (SNB-75): > 100 µM (inactive)
GI50 (NCI-H226): > 100 µM (inactive)
GI50 (IGROV-1): > 100 µM (inactive)
GI50 (OVCAR-3): > 100 µM (inactive)
GI50 (MOLT-4): > 100 µM (inactive)
GI50 (NCI-H522): > 100 µM (inactive)
GI50 (SK-OV-3): > 100 µM (inactive)
GI50 (RXF 393): > 100 µM (inactive)
GI50 (COLO 205): > 100 µM (inactive)
GI50 (SK-MEL-28): > 100 µM (inactive)
GI50 (KM12): > 100 µM (inactive)
GI50 (HCC 2998): > 100 µM (inactive)

COc1cc2c(c(OC)c1OC)-c1ccc(SC)c(=O)cc1[C@@H](NCc1ccc(C#N)cc1)CC2
GI50 (A498): 0.00589 µM (active)
GI50 (SF-539): 0.00252 µM (active)
GI50 (CAKI-1): 0.00701 µM (active)
GI50 (HOP-62): 0.004 µM (active)
GI50 (SW-620): 0.00366 µM (active)
GI50 (SNB-75): 0.00307 µM (active)
GI50 (NCI-H226): 0.00391 µM (active)
GI50 (IGROV-1): 0.00412 µM (active)
GI50 (OVCAR-3): 0.00321 µM (active)
GI50 (MOLT-4): 0.00578 µM (active)
GI50 (NCI-H522): 0.00278 µM (active)
GI50 (SK-OV-3): 0.0031 µM (active)
GI50 (Malme-3M): 0.00564 µM (active)
GI50 (RXF 393): 0.00185 µM (active)
GI50 (COLO 205): 0.0035 µM (active)
GI50 (SK-MEL-28): 0.00578 µM (active)
GI50 (KM12): 0.00469 µM (active)
GI50 (HCC 2998): 0.00291 µM (active)

COC(=O)C(Cc1nc2ccc(Cl)cc2nc1O)/C(=N/O)C(=O)Nc1cccc(Cl)c1C (stereo unspecified)
GI50 (A498): > 100 µM (inactive)
GI50 (SF-539): > 100 µM (inactive)
GI50 (CAKI-1): > 100 µM (inactive)
GI50 (HOP-62): > 100 µM (inactive)
GI50 (SW-620): > 100 µM (inactive)
GI50 (SNB-75): 65.6 µM (inactive)
GI50 (NCI-H226): > 100 µM (inactive)
GI50 (IGROV-1): > 100 µM (inactive)
GI50 (OVCAR-3): > 100 µM (inactive)
GI50 (MOLT-4): > 100 µM (inactive)
GI50 (NCI-H522): > 100 µM (inactive)
GI50 (SK-OV-3): > 100 µM (inactive)
GI50 (Malme-3M): > 100 µM (inactive)
GI50 (RXF 393): 88.1 µM (inactive)
GI50 (COLO 205): > 100 µM (inactive)
GI50 (SK-MEL-28): > 100 µM (inactive)
GI50 (KM12): > 100 µM (inactive)
GI50 (HCC 2998): > 100 µM (inactive)

CSc1nc2c(ncn2C2OC(CO)C(O)C(O)C2O)c(=O)[nH]1 (stereo unspecified)
GI50 (A498): > 100 µM (inactive)
GI50 (MCF7): > 100 µM (inactive)
GI50 (SF-539): > 100 µM (inactive)
GI50 (HOP-62): > 92.5 µM (inactive)
GI50 (SW-620): > 100 µM (inactive)
GI50 (SNB-75): > 100 µM (inactive)
GI50 (NCI-H226): > 100 µM (inactive)
GI50 (IGROV-1): > 100 µM (inactive)
GI50 (OVCAR-3): > 100 µM (inactive)
GI50 (MOLT-4): > 100 µM (inactive)
GI50 (NCI-H522): > 100 µM (inactive)
GI50 (SK-OV-3): > 100 µM (inactive)
GI50 (Malme-3M): > 100 µM (inactive)
GI50 (RXF 393): > 100 µM (inactive)
GI50 (COLO 205): > 100 µM (inactive)
GI50 (SK-MEL-28): > 100 µM (inactive)
GI50 (KM12): > 100 µM (inactive)
GI50 (HCC 2998): > 100 µM (inactive)
